# Test results from patent publication US20090131317A1, “COMPOUNDS AND PEPTIDES THAT BIND THE TRAIL RECEPTOR” (AFFYMAX, INC., priority 2007, published 2009).
# Several values for one entry are separate records, joined by “and”; a condition that tells them apart may be missing. Identical values can stand only once. Like-named read-outs stand apart in the source and are kept apart here. Numbered stars: 1 amine (or outer) side, 2 acyl side, 3 side chain; on linkers, the order of the positions; unused ones are H or OH. Bridge positions count the residues as written; N and C are the ends. Peptide text beside a SMILES is read from it. I, II: the chains in the order shown. Diglycolyl = O=C(COCC(=O)[*:2])[*:1]
# What was measured:
# human TRAIL R2 = molecular target: T1, human TRAIL R2 (Homo sapiens, UniProt O14763); assay: AlphaQuest TRAIL R2 receptor binding competition assay (AlphaScreen, biotinylated TRAIL ligand vs TRAIL R2-Fc); conditions: competition with biotinylated TRAIL ligand
# T1 construct: purchased R&D Systems, Minneapolis, Minn
# Source text: Laser excitation (680 nm) of a photosensitizer in the donor bead generates singlet state oxygen molecules, which react with a chemiluminescer in the acceptor bead to generate a detectable light signal (520-620 nm). Because the singlet O2 molecules have an extremely short half-life (i.e., t ½), a signal is generated only when the donor and acceptor beads are brought into close proximity, by TRAIL binding to the R2 receptor. The presence of unlabeled test peptide that competes with TRAIL for binding to the R2 receptor will prevent this binding, resulting in a measurable decrease in light emission.
# Recombinant human TRAIL R2-Fc fusion protein (R&D Systems, Minneapolis, Minn.) is diluted in AlphaQuest® buffer to a concentration of 600 pM, pre-mixed with 1.9 μL Protein A-coated acceptor beads and 1.9 μL streptavidin-coated donor beads (Perkin-Elmer®, Waltham, Mass.), then 2 μL is added to each well of the assay plate. […] The plates are sealed with adhesive sealing film and covered with aluminum foil, centrifuged at 600 rpm for 30 seconds and incubated overnight in the dark. […] The raw data are analyzed using GraphPad Prism® software (La Jolla, Calif.) to calculate IC50 values from a 4-parameter logistic equation.
# HCT-116 cells = type: cell-based
# Protocol: The apoptotic activity of test peptides is measured using an HCT-116 proliferation assay. The HCT-116 assay is used to measure the activity of TRAIL R2 agonist peptides using the colon carcinoma cell line HCT-116 (ATCC, Manassas, Va.).
# In more detail, a peptide homotrimer based on the peptide monomer sequence of SEQ ID NO: 19 (See, FIG. 8B) is tested for functional activity using the HCT-116 proliferation assay. HCT-116 cells are incubated for one to two days in the presence of serially diluted peptide dimers or peptide trimers. […]
# Cell viability is measured using an MTT colorimetric viability assay, a colorimetric assay that analyzes the number of viable cells by measuring the ability of mitochondrial dehydrogenase enzyme in the viable cells to cleave tetrazolium salts added to the culture medium [See, Mosmann (1983) J. Immunol. […] Using this assay, cell proliferation is assessed after 24-48 hours by adding 10 μL of MTT stock solution (ATCC, Manassas, Va.) to the wells. […] After incubation overnight in a 37° C., 5% CO2 incubator, the plates are quantified by reading the optical density at 595 nm (OD595) in a SpectraMax M5 microplate reader (Molecular Devices, Sunnyvale, Calif.). The data are analyzed using GraphPad® Prism software (La Jolla, Calif.) to calculate IC50 values from a 4-parameter logistic equation.
# Jurkat cells = type: cell-based
# Protocol: The apoptotic activity of test peptides is measured using a Jurkat proliferation assay.
# Jurkat cells are obtained from the American Type Culture Collection (ATCC, Manassas, Va.) and are maintained in RPMI-1640 medium supplemented with 10% FBS, 100 U/mL penicillin, and 100 […] (Growth Medium). […] Cells are resuspended at a density of 1×10^6 cells/mL in Growth Medium, and 50 μl cells is added to each well of the assay plates. The plates are incubated in a 37° C., 5% CO2 incubator for 24-48 hours. Proliferation is assessed by adding 10 μL of MTT stock solution (ATCC, Manassas, Va.) to the wells. The plates are incubated in a 37° C., 5% CO2 incubator for another 2-4 hours, followed by the addition of 100 μL of 20% SDS with 0.01 N HCl. After incubation overnight in a 37° C., 5% CO2 incubator, the plates are quantified by reading the optical density at a wavelength of 595 nm (OD595) in a SpectraMax® M5 microplate reader (Molecular Devices, Sunnyvale, Calif.). The data are analyzed using GraphPad Prism® software (La Jolla, Calif.) to calculate IC50 values from a 4-parameter logistic equation.
# [1] = Apoptotic (functional) activity of peptides of FIG. 5, assay not named; type: cell-based; conditions: FIG. 5, role of the C-terminal leucine
SMILES,"IC50 (human TRAIL R2; single values and ranges over assays, read-out: binding activity (IC50))",EC50 (HCT-116 cells),EC50 (Jurkat cells),"IC50 (human TRAIL R2; single exemplary values and ranges over assays, read-out: binding affinity / binding activity (IC50))",apoptotic activity (observed or not) [1]
"CC[C@H](C)[C@@H]1NC(=O)[C@H](CCCNC(=N)N)NC(=O)[C@H](CC(N)=O)NC(=O)[C@H](CC(=O)O)NC(=O)[C@H](CC(C)C)NC(=O)[C@@H](NC(=O)[C@H](CC(=O)O)NC(=O)[C@H](Cc2c[nH]c3ccccc23)NC(C)=O)CSSC[C@@H](C(=O)N[C@H](C(=O)N[C@@H](CCCCNC(=O)COCC(=O)NCCCC[C@H](NC(=O)[C@@H](NC(=O)[C@@H]2CSSC[C@H](NC(=O)[C@H](CC(=O)O)NC(=O)[C@H](Cc3c[nH]c4ccccc34)NC(C)=O)C(=O)N[C@@H](CC(C)C)C(=O)N[C@@H](CC(=O)O)C(=O)N[C@@H](CC(N)=O)C(=O)N[C@@H](CCCNC(=N)N)C(=O)N[C@@H]([C@@H](C)CC)C(=O)NCC(=O)N[C@@H](CCCNC(=N)N)C(=O)N[C@@H](CCCNC(=N)N)C(=O)N[C@@H](CCC(N)=O)C(=O)N2)C(C)C)C(=O)N[C@@H](CC(C)C)C(N)=O)C(=O)N[C@@H](CC(C)C)C(N)=O)C(C)C)NC(=O)[C@H](CCC(N)=O)NC(=O)[C@H](CCCNC(=N)N)NC(=O)[C@H](CCCNC(=N)N)NC(=O)CNC1=O [SEQ ID NO: 19 homodimer] (I: Ac-WDCLDNRIGRRQCVKL-NH2 / II: Ac-WDCLDNRIGRRQCVKL-NH2; disulfide I:3-I:13, II:3-II:13; linker I:15-II:15 via Diglycolyl)",~7000 nM and 1000 to 56000 nM,~1620 nM,0.945 to 7 µM,–,–
CC[C@H](C)[C@@H]1NC(=O)[C@H](CCCNC(=N)N)NC(=O)[C@H](CC(N)=O)NC(=O)[C@H](CC(=O)O)NC(=O)[C@H](CC(C)C)NC(=O)[C@@H](NC(=O)[C@H](CC(=O)O)NC(=O)[C@H](Cc2c[nH]c3ccccc23)NC(C)=O)CSSC[C@@H](C(=O)N[C@H](C(=O)N[C@@H](CCCCN)C(=O)N[C@@H](CC(C)C)C(N)=O)C(C)C)NC(=O)[C@H](CCC(N)=O)NC(=O)[C@H](CCCNC(=N)N)NC(=O)[C@H](CCCNC(=N)N)NC(=O)CNC1=O [SEQ ID NO: 19 monomer] (Ac-WDCLDNRIGRRQCVKL-NH2; disulfide 3-13),–,–,–,~49 nM and 15 to 104 nM and 1 to 56 nM,exhibits apoptotic activity
CC[C@H](C)[C@@H]1NC(=O)[C@H](CCCNC(=N)N)NC(=O)[C@H](CC(N)=O)NC(=O)[C@H](CC(=O)O)NC(=O)[C@H](CC(C)C)NC(=O)[C@@H](NC(=O)[C@H](CC(=O)O)NC(=O)[C@H](Cc2c[nH]c3ccccc23)NC(C)=O)CSSC[C@@H](C(=O)N[C@H](C(=O)N[C@@H](CCCCN)C(N)=O)C(C)C)NC(=O)[C@H](CCC(N)=O)NC(=O)[C@H](CCCNC(=N)N)NC(=O)[C@H](CCCNC(=N)N)NC(=O)CNC1=O [SEQ ID NO: 28 monomer] (Ac-WDCLDNRIGRRQCVK-NH2; disulfide 3-13),–,–,–,–,no apoptotic activity is observed
